In ChEMBL document CHEMBL4049417, “Design and synthesis of novel 6-aryl substituted 4-anilinequinazoline derivatives as potential PI3Kδ inhibitors” (Bioorg Med Chem Lett, 2017) one finds inhibition and IC50 data, which are given here for 14 molecules.

pIC50: −log10 of the molar value. A value given as a limit tells only on which side of the number the result lay.

Assay [1] concerns the target PI3-kinase p110-delta/p85-alpha (Homo sapiens) (UniProt P27986+O00329). In words: Inhibition of PI3K p110delta/p85alpha (unknown origin) at 100 nM using lipid substrate after 40 mins by kinase-glo luminescence assay relative to control. The format is protein-complex assay. A general note: Kinase-Glo measures the ATP left after a reaction by luminescence.
The test system of assay [2] is Raji. Description: Antiproliferative activity against human Raji cells after 72 hrs by MTT assay. The format is functional, cell-based. On the technique in general: Tetrazolium dyes change colour on reduction, which living cells bring about.
The nature of assay [3]: Antiproliferative activity against human RPMI8266 cells after 72 hrs by MTT assay. The format is functional, cell-based. The note with it: RPMI8266, 72 h.
Assay [4] deals with PI3-kinase p110-delta/p85-alpha (Homo sapiens, UniProt O00329). Description: Inhibition of PI3K p110delta/p85alpha (unknown origin) using lipid substrate after 40 mins by kinase-glo luminescence assay. Format: protein-complex assay.
Assay [5] has as its system Ramos. In words: Antiproliferative activity against human Ramos cells after 72 hrs by MTT assay. Format: functional, cell-based.

Sequence of PI3-kinase p110-delta/p85-alpha (P27986 whole entry): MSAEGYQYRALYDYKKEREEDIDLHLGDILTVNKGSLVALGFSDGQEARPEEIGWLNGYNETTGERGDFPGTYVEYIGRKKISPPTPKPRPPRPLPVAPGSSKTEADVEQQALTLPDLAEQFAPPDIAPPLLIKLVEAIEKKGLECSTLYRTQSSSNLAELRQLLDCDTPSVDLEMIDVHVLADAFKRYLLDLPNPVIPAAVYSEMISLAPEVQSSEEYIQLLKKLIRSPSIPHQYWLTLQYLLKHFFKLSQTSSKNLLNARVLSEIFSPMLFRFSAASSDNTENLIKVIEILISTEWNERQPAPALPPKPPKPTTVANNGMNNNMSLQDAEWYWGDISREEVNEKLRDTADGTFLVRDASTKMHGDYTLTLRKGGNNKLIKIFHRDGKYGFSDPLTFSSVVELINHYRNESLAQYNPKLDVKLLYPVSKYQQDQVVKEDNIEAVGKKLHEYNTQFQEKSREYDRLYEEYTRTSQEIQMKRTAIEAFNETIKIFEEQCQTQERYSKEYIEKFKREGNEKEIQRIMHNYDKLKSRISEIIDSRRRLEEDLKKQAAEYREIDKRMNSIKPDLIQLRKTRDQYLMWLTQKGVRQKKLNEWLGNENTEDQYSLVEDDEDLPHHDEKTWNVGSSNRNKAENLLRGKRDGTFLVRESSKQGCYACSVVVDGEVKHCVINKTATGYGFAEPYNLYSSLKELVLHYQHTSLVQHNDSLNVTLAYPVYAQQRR
Sequence of PI3-kinase p110-delta/p85-alpha (O00329 whole entry): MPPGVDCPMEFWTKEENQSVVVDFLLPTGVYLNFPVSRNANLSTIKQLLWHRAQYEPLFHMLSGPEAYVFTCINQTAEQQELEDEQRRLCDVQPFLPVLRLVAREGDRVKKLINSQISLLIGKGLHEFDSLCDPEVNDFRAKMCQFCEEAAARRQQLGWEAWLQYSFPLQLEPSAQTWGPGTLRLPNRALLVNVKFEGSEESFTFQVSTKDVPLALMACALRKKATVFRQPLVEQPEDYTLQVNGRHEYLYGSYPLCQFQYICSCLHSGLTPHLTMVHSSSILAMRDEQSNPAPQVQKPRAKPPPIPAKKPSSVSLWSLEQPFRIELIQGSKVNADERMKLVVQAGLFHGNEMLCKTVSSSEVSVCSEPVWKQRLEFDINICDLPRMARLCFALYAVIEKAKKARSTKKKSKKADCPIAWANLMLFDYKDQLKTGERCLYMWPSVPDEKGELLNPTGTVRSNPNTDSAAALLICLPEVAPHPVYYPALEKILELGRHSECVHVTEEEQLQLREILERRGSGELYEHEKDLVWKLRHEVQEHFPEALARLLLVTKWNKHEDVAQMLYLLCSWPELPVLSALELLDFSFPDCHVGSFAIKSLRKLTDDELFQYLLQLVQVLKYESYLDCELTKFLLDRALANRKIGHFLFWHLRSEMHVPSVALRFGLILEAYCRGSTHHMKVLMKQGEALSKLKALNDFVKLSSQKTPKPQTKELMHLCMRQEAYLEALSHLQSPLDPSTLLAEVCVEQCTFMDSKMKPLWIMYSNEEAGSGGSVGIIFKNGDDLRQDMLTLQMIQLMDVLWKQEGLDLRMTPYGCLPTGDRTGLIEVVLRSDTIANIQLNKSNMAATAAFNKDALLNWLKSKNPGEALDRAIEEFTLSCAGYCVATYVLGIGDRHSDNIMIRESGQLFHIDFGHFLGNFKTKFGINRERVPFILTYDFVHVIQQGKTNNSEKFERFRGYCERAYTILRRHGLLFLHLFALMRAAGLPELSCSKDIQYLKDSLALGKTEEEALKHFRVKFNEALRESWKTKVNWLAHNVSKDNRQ

For the molecule `COc1ccc(-c2ccc3nccc(Nc4cccc(C(=O)N5CCN(C)CC5)c4)c3c2)cn1`, the inhibition – broadly, the drop in the measured response relative to a control, in per cent – in assay [1] was determined as 23%. In the case of `COc1ncc(-c2ccc3ncnc(Nc4cccc(C(=O)N5CCOCC5)c4)c3c2)cc1C#N`, the pIC50 – broadly, the negative decadic logarithm of the IC50, by convention in mol/L – in assay [2] is below 5.00; in assay [3] it was 5.18; in assay [4] it was 8.03; in assay [5], below 5.00. In assay [1], this molecule displayed an inhibition of 93%. For `COc1ccc(-c2ccc3ncnc(Nc4ccc(C(=O)N5CCOCC5)cc4)c3c2)cn1`, in assay [1], the inhibition is 61%. As for `NC(=O)c1cc(-c2ccc3ncnc(Nc4cccc(C(=O)N5CCOCC5)c4)c3c2)cc(C(F)(F)F)c1`, the pIC50 is 6.02 in assay [2], 5.96 in assay [3], 8.01 in assay [4] and 5.97 in assay [5]. Besides, the inhibition in assay [1] amounted to 91%. As to `COc1ccc(-c2ccc3ncnc(Nc4ccc(C(=O)N5CCN(C)CC5)cc4)c3c2)cc1C(N)=O`, in assay [1], the inhibition came out at 12%. On the same count and under the same terms, then `COc1ccc(-c2ccc3ncnc(Nc4cccc(C(=O)N5CCOCC5)c4)c3c2)cn1`, with 87%. The same measure, in the same setting: for `COc1ccc(-c2ccc3ncnc(Nc4cccc(C(=O)N5CCOCC5)c4)c3c2)cc1C(N)=O` the value was 21%. Consider `COc1cc(C(N)=O)cc(-c2ccc3ncnc(Nc4cccc(C(=O)N5CCOCC5)c4)c3c2)c1`, for which the inhibition in assay [1] was 61%. `COc1c(C(N)=O)cc(-c2ccc3ncnc(Nc4cccc(C(=O)N5CCOCC5)c4)c3c2)cc1[N+](=O)[O-]` yielded an inhibition in assay [1] of 49%.

In assay [1], `COc1ccc(-c2ccc3nccc(Nc4cccc(C(=O)N5CCN(C)CC5)c4)c3c2)cc1C(N)=O` showed an inhibition of 0%. In the case of `CC[C@H](Nc1ncnc2[nH]cnc12)c1nc2cccc(F)c2c(=O)n1-c1ccccc1` [IDELALISIB], the figures for the pIC50 in assay [2], in assay [3] and in assay [5] were 5.00, 5.26 and below 5.00, respectively. The inhibition in assay [1] was found to be 96%.

`COc1ccc(-c2ccc3ncnc(Nc4cccc(C(=O)N5CCN(C)CC5)c4)c3c2)cn1` had an inhibition in assay [1] of 71%. `COc1ccc(-c2ccc3ncnc(Nc4cccc(C(=O)N5CCN(C)CC5)c4)c3c2)cc1C(N)=O` had an inhibition in assay [1] of 33%.

For the molecule `COc1ccc(-c2ccc3ncnc(Nc4ccc(C(=O)N5CCOCC5)cc4)c3c2)cc1C(N)=O`, the inhibition in assay [1] turned out to be 0%.
